How the values were obtained:
Type in all cases: in vivo
AMAPA [1] = assay: Pre-emergence biological efficacy; details: Amaranthus palmeri, 312 h, evaluated after 13 days, read-out: damage to plant (100=total damage to plant; 0=no damage to plant)
Protocol: (§1) Seeds of weeds and/or crops were sown in standard soil in pots. After cultivation for one day under controlled conditions in a glasshouse (at 24/19° C., day/night; 16 hours light), the plants were sprayed with an aqueous spray solution derived from the formulation of the technical active ingredient in a small amount of acetone and a special solvent and emulsifier mixture referred to as IF50 (11.12% Emulsogen EL360 TM+44.44% N-methylpyrrolidone+44.44% Dowanol DPM glycol ether), to create a 50g/l solution which was then diluted using 0.2% Genapol XO80 as diluent to give the desired final dose of test compound.
(§2) The test plants were then grown under controlled conditions in the glasshouse (at 24/18° C., day/night; 15 hours light; 50% humidity) and watered twice daily. After 13 days the test was evaluated (100=total damage to plant; 0=no damage to plant).

ECHCG [2] = assay: Pre-emergence biological efficacy; details: Echinochloa crus-galli, 312 h, evaluated after 13 days, read-out: damage to plant (100=total damage to plant; 0=no damage to plant)
Protocol: as §1, §2

EPHHL [3] = assay: Pre-emergence biological efficacy; details: Euphorbia heterophylla, 312 h, evaluated after 13 days, read-out: damage to plant (100=total damage to plant; 0=no damage to plant)
Protocol: as §1, §2

IPOHE [4] = assay: Pre-emergence biological efficacy; details: Ipomoea hederacea, 312 h, evaluated after 13 days, read-out: damage to plant (100=total damage to plant; 0=no damage to plant)
Protocol: as §1, §2

LOLPE [5] = assay: Pre-emergence biological efficacy; details: Lolium perenne, 312 h, evaluated after 13 days, read-out: damage to plant (100=total damage to plant; 0=no damage to plant)
Protocol: as §1, §2

SETFA [6] = assay: Pre-emergence biological efficacy; details: Setaria faberi, 312 h, evaluated after 13 days, read-out: damage to plant (100=total damage to plant; 0=no damage to plant)
Protocol: as §1, §2

AMAPA [7] = assay: Post-emergence biological efficacy; details: Amaranthus palmeri, 312 h, evaluated after 13 days, read-out: damage to plant (100=total damage to plant; 0=no damage to plant)
Protocol: as §1, with “14 days” for “one day”
(§3) The test plants were then grown under controlled conditions in the glasshouse (at 24/18° C., day/night; 15 hours light; 50% humidity)and watered twice daily. After 13 days the test was evaluated (100=total damage to plant; 0=no damage to plant).

CHEAL = assay: Post-emergence biological efficacy; details: Chenopodium album, 312 h, evaluated after 13 days, read-out: damage to plant (100=total damage to plant; 0=no damage to plant)
Protocol: as §1, with “14 days” for “one day”
as §3

DIGSA = assay: Post-emergence biological efficacy; details: Digitaria sanguinalis, 312 h, evaluated after 13 days, read-out: damage to plant (100=total damage to plant; 0=no damage to plant)
Protocol: as §1, with “14 days” for “one day”
as §3

ECHCG [8] = assay: Post-emergence biological efficacy; details: Echinochloa crus-galli, 312 h, evaluated after 13 days, read-out: damage to plant (100=total damage to plant; 0=no damage to plant)
Protocol: as §1, with “14 days” for “one day”
as §3

ELEIN = assay: Post-emergence biological efficacy; details: 312 h, evaluated after 13 days, read-out: damage to plant (100=total damage to plant; 0=no damage to plant)
Protocol: as §1, with “14 days” for “one day”
as §3

EPHHL [9] = assay: Post-emergence biological efficacy; details: Euphorbia heterophylla, 312 h, evaluated after 13 days, read-out: damage to plant (100=total damage to plant; 0=no damage to plant)
Protocol: as §1, with “14 days” for “one day”
as §3

IPOHE [10] = assay: Post-emergence biological efficacy; details: Ipomoea hederacea, 312 h, evaluated after 13 days, read-out: damage to plant (100=total damage to plant; 0=no damage to plant)
Protocol: as §1, with “14 days” for “one day”
as §3

LOLPE [11] = assay: Post-emergence biological efficacy; details: Lolium perenne, 312 h, evaluated after 13 days, read-out: damage to plant (100=total damage to plant; 0=no damage to plant)
Protocol: as §1, with “14 days” for “one day”
as §3

SETFA [12] = assay: Post-emergence biological efficacy; details: Setaria faberi, 312 h, evaluated after 13 days, read-out: damage to plant (100=total damage to plant; 0=no damage to plant)
Protocol: as §1, with “14 days” for “one day”
as §3

Structure (SMILES)	pest or weed control at 250 g/ha (AMAPA [1])	pest or weed control at 250 g/ha (ECHCG [2])	pest or weed control at 250 g/ha (EPHHL [3])	pest or weed control at 250 g/ha (IPOHE [4])	pest or weed control at 250 g/ha (LOLPE [5])	pest or weed control at 250 g/ha (SETFA [6])	pest or weed control at 250 g/ha (AMAPA [7])	pest or weed control at 250 g/ha (CHEAL)	pest or weed control at 250 g/ha (DIGSA)	pest or weed control at 250 g/ha (ECHCG [8])	pest or weed control at 250 g/ha (ELEIN)	pest or weed control at 250 g/ha (EPHHL [9])	pest or weed control at 250 g/ha (IPOHE [10])	pest or weed control at 250 g/ha (LOLPE [11])	pest or weed control at 250 g/ha (SETFA [12])
CCOC(=O)C1(C)CC(c2cc(-c3ccc(C(F)(F)F)cn3)c(F)cc2Cl)=NO1 (stereo not drawn) [Compound 1-79, Ethyl 3-[2-chloro-4-fluoro-5-[5-(trifluoromethyl)-2-pyridyl]phenyl]-5-methyl-4H-isoxazole-5-carboxylate]	50%	80%	60%	100%	40%	60%	100%	100%	100%	100%	90%	100%	100%	100%	100%
CCOC(=O)C1(C)CC(c2cc(-c3ncc(C(F)(F)F)cc3F)c(F)cc2Cl)=NO1 (stereo not drawn) [Compound 1-91, Ethyl 3-[2-chloro-4-fluoro-5-[3-fluoro-5-(trifluoromethyl)-2-pyridyl]-phenyl]-5-methyl-4H-isoxazole-5-carboxylate]	100%	100%	100%	100%	90%	100%	100%	100%	100%	100%	100%	100%	100%	100%	100%
CCOC(=O)C1(C)CC(c2cc(-c3ncc(C(F)(F)F)cc3Cl)ccc2Cl)=NO1 (stereo not drawn) [Compound 1-99, Ethyl 3-[2-chloro-5-[3-chloro-5-(trifluoromethyl)-2-pyridyl]-phenyl]-5-methyl-4H-isoxazole-5-carboxylate]	100%	100%	100%	100%	80%	100%	100%	100%	100%	100%	100%	100%	100%	100%	100%
CC1(C(=O)O)CC(c2cc(-c3ncc(C(F)(F)F)cc3Cl)c(F)cc2Cl)=NO1 (stereo not drawn) [Compound 1-101, 3-[2-chloro-5-(3-chloro-5-trifluoromethyl-2-pyridyl)-4-fluoro-phenyl]-5-methyl-4H-isoxazole-5-carboxylic acid]	100%	100%	100%	100%	80%	100%	100%	100%	100%	100%	100%	100%	100%	100%	100%
CCOC(=O)C1(C)CC(c2cc(-c3ncc(C(F)(F)F)cc3Cl)c(F)cc2Cl)=NO1 (stereo not drawn) [Compound 1-103, Ethyl 3-[2-chloro-5-(3-chloro-5-trifluoromethyl-2-pyridyl)-4-fluoro-phenyl]-5-methyl-4H-isoxazole-5-carboxylate]	100%	90%	100%	100%	80%	80%	100%	100%	100%	100%	100%	100%	100%	100%	100%
CCOC(=O)C1(C)CC(c2cc(-c3ncc(Cl)cc3Cl)c(F)cc2Cl)=NO1 (stereo not drawn) [Compound 1-115, Ethyl 3-[2-chloro-5-(3,5-dichloro-2-pyridyl)-4-fluoro-phenyl]-5-methyl-4H-isoxazole-5-carboxylate]	100%	80%	100%	80%	50%	60%	100%	100%	100%	100%	100%	100%	100%	100%	100%
CCOC(=O)C1(C)CC(c2cc(-c3ncccc3Cl)c(F)cc2Cl)=NO1 (stereo not drawn) [Compound 1-127, Ethyl 3-[2-chloro-5-(3-chloro-2-pyridyl)-4-fluoro-phenyl]-5-methyl-4H-isoxazole-5-carboxylate]	40%	50%	100%	50%	20%	70%	100%	100%	50%	90%	30%	80%	100%	10%	100%
CCOC(=O)C1(C)CC(c2cc(-c3ccccn3)c(F)cc2Cl)=NO1 (stereo not drawn) [Compound 1-139, Ethyl 3-[2-chloro-4-fluoro-5-(2-pyridyl)phenyl]-5-methyl-4H-isoxazole-5-carboxylate]	0%	0%	0%	0%	0%	0%	0%	0%	0%	0%	0%	10%	20%	0%	10%
CCOC(=O)C1(C)CC(c2cc(-c3ncc(C)cc3Cl)c(F)cc2Cl)=NO1 (stereo not drawn) [Compound 1-175, Ethyl 3-[2-chloro-5-(3-chloro-5-methyl-2-pyridyl)-4-fluoro-phenyl]-5-methyl-4H-isoxazole-5-carboxylate]	30%	60%	60%	50%	20%	80%	100%	100%	70%	100%	70%	100%	100%	90%	100%

Reference: patent US20240124432A1, “HERBICIDAL COMPOUNDS” (SYNGENTA CROP PROTECTION AG, priority 2020, published 2024)
